The term IC50 denotes the concentration that gives 50% inhibition.

Data on 32 molecules can be found in patent US11708366B2, “Heteroaryl substituted spiropiperidinyl derivatives and pharmaceutical uses thereof” (Novartis AG, priority 2020, dated 2023).

Structures are written as SMILES.

For the test, the target named is LTC4S (Homo sapiens (Human), UniProt Q16873). Nature of the test: Human whole blood HTRF assay (LTC4 release after calcium ionophore A23187). It is filed as cell-based. The conditions noted are these: human whole blood diluted 1:3, 4 h incubation, calcium ionophore A23187 stimulation, LTC4 by HTRF; read-out: human whole blood HTRF IC50. A general note: Time-resolved FRET reads energy transfer from a long-lived donor to a nearby acceptor.
Regarding `O=C1CCCC2(CCN(c3cc(-n4cc(C(F)(F)F)cn4)nc(CO)n3)CC2)N1c1ccc(F)c(F)c1` [Example 66, 1-(3,4-difluorophenyl)-9-(2-(hydroxymethyl)-6-(4-(trifluoromethyl)-1H-pyrazol-1-yl)pyrimidin-4-yl)1,9-diazaspiro[5.5]undecane-2-one], the IC50 was determined as 1 nM.
As for `NC(=O)c1nc(N2CCC3(CCCC(=O)N3c3ccc(F)c(F)c3)CC2)cc(-n2cc(C(F)(F)F)cn2)n1` [Example 68], the figure is 120 nM; as for `O=C1CCCC2(CCN(c3cc(-n4cc(C(F)(F)F)cn4)nc(Cl)n3)CC2)N1c1ccc(F)c(F)c1` [Example 69, 9-(2-chloro-6-(4-(trifluoromethyl)-1H-pyrazol-1-yl)pyrimidin-4-yl)-1-(3,4-difluorophenyl)-1,9-diazaspiro[5.5]undecan-2-one], 35 nM.
Under `O=C1CCCC2(CCN(c3cc(O[C@@H]4CCOC4)nc(Cl)n3)CC2)N1c1ccc(F)c(F)c1` [Example 70, (R)-9-(2-chloro-6-((tetrahydrofuran-3-yl)oxy)pyrimidin-4-yl)-1-(3,4-difluorophenyl)-1,9-diazaspiro[5.5]undecan-2-one] stands 110 nM; under `O=C1CCCC2(CCN(c3cc(O[C@H]4CCOC4)nc(Cl)n3)CC2)N1c1ccc(F)c(F)c1` [Example 71, (S)-9-(2-chloro-6-((tetrahydrofuran-3-yl)oxy)pyrimidin-4-yl)-1-(3,4-difluorophenyl)-1,9-diazaspiro[5.5]undecan-2-one], 580 nM.
As for `O=C1CCCC2(CCN(c3nc(Cl)cc(O[C@@H]4CCOC4)n3)CC2)N1c1ccc(F)c(F)c1` [Example 72, (R)-9-(4-chloro-6-((tetrahydrofuran-3-yl)oxy)pyrimidin-2-yl)-1-(3,4-difluorophenyl)-1,9-diazaspiro[5.5]undecan-2-one], the figure is 760 nM; as for `O=C1CCCC2(CCN(c3cc(-n4cc(F)cn4)nc(N4CCOCC4)n3)CC2)N1c1ccc(F)c(F)c1` [Example 73, 1-(3,4-difluorophenyl)-9-(6-(4-fluoro-1H-pyrazol-1-yl)-2-morpholinopyrimidin-4-yl)-1,9-diazaspiro[5.5]undecan-2-one], 68 nM.
With `Nc1nc(C2=CCC(F)(F)CC2)cc(N2CCC3(CCCC(=O)N3c3ccc(F)c(F)c3)CC2)n1` [Example 74, 9-(2-amino-6-(4,4-difluorocyclohex-1-en-1-yl)pyrimidin-4-yl)-1-(3,4-difluorophenyl)-1,9-diazaspiro[5.5]undecan-2-one], the IC50 was found to be 4 nM.
Under `Nc1nc(-c2ccc(F)cc2)cc(N2CCC3(CCCC(=O)N3c3ccc(F)c(F)c3)CC2)n1` [Example 75] stands 4 nM; under `Nc1nc(N2CCC3(CCCC(=O)N3c3ccc(F)c(F)c3)CC2)cc(C(F)(F)F)n1` [Example 76, 9-(2-amino-6-(trifluoromethyl)pyrimidin-4-yl)-1-(3,4-difluorophenyl)-1,9-diazaspiro[5.5]undecan-2-one], 57 nM.
As for `Nc1nc(N2CCC3(CCCC(=O)N3c3ccc(F)c(F)c3)CC2)cc(C(F)(F)C(F)(F)F)n1` [Example 77, 9-(2-amino-6-(perfluoroethyl)pyrimidin-4-yl)-1-(3,4-difluorophenyl)-1,9-diazaspiro[5.5]undecane-2-one], the figure is 31 nM.
With `Nc1nc(N2CCC3(CCCC(=O)N3c3ccc(F)c(F)c3)CC2)cc(C(F)(F)C(F)F)n1` [Example 78, 9-(2-amino-6-(1,1,2,2-tetrafluoroethyl)pyrimidin-4-yl)-1-(3,4-difluorophenyl)-1,9-diazaspiro[5.5]undecan-2-one], the IC50 amounted to 24 nM.
As for `O=C1CCCC2(CCN(c3cc(C(F)(F)C(F)(F)F)nc(CO)n3)CC2)N1c1ccc(F)c(F)c1` [Example 79, 1-(3,4-difluorophenyl)-9-(2-(hydroxymethyl)-6-(perfluoroethyl)pyrimidin-4-yl)-1,9-diazaspiro[5.5]undecane-2-one], the figure is 56 nM.
Turning to `CC(C)(O)c1nc(N2CCC3(CCCC(=O)N3c3ccc(F)c(F)c3)CC2)cc(C(F)(F)F)n1` [Example 80, 1-(3,4-difluorophenyl)-9-(2-(2-hydroxypropan-2-yl)-6-(trifluoromethyl)pyrimidin-4-yl)-1,9-diazaspiro[5.5]undecan-2-one], the IC50 came out at 24 nM.
As for `CCCOc1ccnc(N2CCC3(CCCC(=O)N3c3ccc(F)c(F)c3)CC2)n1` [Example 85, 1-(3,4-difluorophenyl)-9-(4-propoxypyrimidin-2-yl)-1,9-diazaspiro[5.5]undecan-2-one], the figure is 430 nM.
Under `O=C1CCCC2(CCN(c3cc(OC4CCOCC4)ncn3)CC2)N1c1ccc(F)c(F)c1` [Example 87, 1-(3,4-difluorophenyl)-9-(6-((tetrahydro-2H-pyran-4-yl)oxy)pyrimidin-4-yl)-1,9-diazaspiro[5.5]undecan-2-one] stands 7 nM; under `O=C1CCCC2(CCN(c3cc(OCC(F)(F)F)nc(Cl)n3)CC2)N1c1ccc(F)c(F)c1` [Example 88, 9-(2-chloro-6-(2,2,2-trifluoroethoxy)pyrimidin-4-yl)-1-(3,4-difluorophenyl)-1,9-diazaspiro[5.5]undecan-2-one], 1370 nM; under `Nc1nc(OC2CC(F)(F)C2)cc(N2CCC3(CCCC(=O)N3c3ccc(F)c(F)c3)CC2)n1` [Example 90, 9-(2-amino-6-(3,3-difluorocyclobutoxy)pyrimidin-4-yl)-1-(3,4-difluorophenyl)-1,9-diazaspiro[5.5]undecan-2-one], 4 nM.
As for `Nc1nc(OCC(F)(F)F)cc(N2CCC3(CCCC(=O)N3c3ccc(F)c(F)c3)CC2)n1` [Example 91, 9-(2-amino-6-(2,2,2-trifluoroethoxy)pyrimidin-4-yl)-1-(3,4-difluorophenyl)-1,9-diazaspiro[5.5]undecan-2-one], the figure is 3 nM; as for `[2H]C([2H])(Oc1cc(N2CCC3(CCCC(=O)N3c3ccc(F)c(F)c3)CC2)nc(N)n1)C(F)(F)F` [Example 92, 9-(2-amino-6-(2,2,2-trifluoroethoxy-1,1-d2)pyrimidin-4-yl)-1-(3,4-difluorophenyl)-1,9-diazaspiro[5.5]undecan-2-one], 5 nM.
Take `CC(C)Oc1cc(N2CCC3(CCCC(=O)N3c3ccc(F)c(F)c3)CC2)nc(N)n1` [Example 93, 9-(2-amino-6-isopropoxypyrirnidin-4-yl)-1-(3,4-difluorophenyl)-1,9-diazaspiro[5.5]undecan-2-one]: the IC50 was 10 nM.
As for `Nc1nc(OCCO)cc(N2CCC3(CCCC(=O)N3c3ccc(F)c(F)c3)CC2)n1` [Example 94, 9-(2-amino-6-(2-hydroxyethoxy)pyrimidin-4-yl)-1-(3,4-difluorophenyl)-1,9-diazaspiro[5.5]undecan-2-one], the figure is 830 nM.
As for `Nc1nc(OCC(F)(F)C(F)(F)F)cc(N2CCC3(CCCC(=O)N3c3ccc(F)c(F)c3)CC2)n1` [Example 97], the figure is 3 nM; as for `Nc1nc(O[C@@H]2CCCOC2)cc(N2CCC3(CCCC(=O)N3c3ccc(F)c(F)c3)CC2)n1` [Example 100, (R)-9-(2-amino-6-((tetrahydro-2H-pyran-3-yl)oxy)pyrimidin-4-yl)-1-(3,4-difluorophenyl)-1,9-diazaspiro[5.5]undecan-2-one], 2 nM; as for `Nc1nc(OC2CCOCC2)cc(N2CCC3(CCCC(=O)N3c3ccc(F)c(F)c3)CC2)n1` [Example 101, 9-(2-amino-6-((tetrahydro-2H-pyran-4-yl)oxy)pyrimidin-4-yl)-1-(3,4-difluorophenyl)-1,9-diazaspiro[5.5]undecan-2-one], 5 nM.
Under `[2H]C1(Oc2cc(N3CCC4(CCCC(=O)N4c4ccc(F)c(F)c4)CC3)nc(N)n2)CCOCC1` [Example 103, 9-(2-amino-6-((tetrahydro-2H-pyran-4-yl-4-d)oxy)pyrimidin-4-yl)-1-(3,4-difluorophenyl)-1,9-diazaspiro[5.5]undecan-2-one] stands 8 nM.
`O=C1CCCC2(CCN(c3cc(OC4CCOCC4)nc(CO)n3)CC2)N1c1ccc(F)c(F)c1` [Example 106, 1-(3,4-difluorophenyl)-9-(2-(hydroxymethyl)-6-((tetrahydro-2H-pyran-4-yl)oxy)pyrimidin-4-yl)-1,9-diazaspiro[5.5]undecan-2-one]: the IC50 was 69 nM.
As for `O=C1CCCC2(CCN(c3cc(O[C@H]4CCOC4)nc(CO)n3)CC2)N1c1ccc(F)c(F)c1` [Example 109, (S)-1-(3,4-difluorophenyl)-9-(2-(hydroxymethyl)-6-((tetrahydrofuran-3-yl)oxy)pyrimidin-4-yl)-1,9-diazaspiro[5.5]undecan-2-one], the figure is 15 nM.
As for `Nc1nc(N[C@@H]2CCOC2)cc(N2CCC3(CCCC(=O)N3c3ccc(F)c(F)c3)CC2)n1` [Example 112, (R)-9-(2-amino-6-((tetrahydrofuran-3-yl)amino)pyrimidin-4-yl)-1-(3,4-difluorophenyl)-1,9-diazaspiro[5.5]undecan-2-one], the figure is 67 nM; as for `C[C@H](Oc1cc(N2CCC3(CCOC(=O)N3c3ccc(F)c(F)c3)CC2)nc(N)n1)C(F)(F)F` [Example 113b, (S)-9-(2-amino-6-((1,1,1-trifluoropropan-2-yl)oxy)pyrimidin-4-yl)-1-(3,4-difluorophenyl)-3-oxa-1,9-diazaspiro[5.5]undecan-2-one, or (R)-9-(2-amino-6-((1,1,1-trifluoropropan-2-yl)oxy)pyrimidin-4-yl)-1-(3,4-difluorophenyl)-3-oxa-1,9-diazaspiro[5.5]undecan-2-one], 36 nM.
Turning to `O=C1OCCC2(CCN(c3cc(-n4cc(C(F)(F)F)cn4)nc(CO)n3)CC2)N1c1ccc(F)c(F)c1` [Example 114, 1-(3,4-difluorophenyl)-9-(2-(hydroxymethyl)-6-(4-(trifluoromethyl)-1H-pyrazol-1-yl)pyrimidin-4-yl)-3-oxa-1,9-diazaspiro[5.5]undecan-2-one], the IC50 was found to be 7 nM.
Under `Nc1nc(N2CCC3(CCOC(=O)N3c3ccc(F)c(F)c3)CC2)cc(-n2cc(C(F)(F)F)cn2)n1` [Example 115, 9-(2-amino-6-(4-(trifluoromethyl)-1H-pyrazol-1-yl)pyrimidin-4-yl)-1-(3,4-difluorophenyl)-3-oxa-1,9-diazaspiro[5.5]undecan-2-one] stands 28 nM.
